Entries after “also recorded” stand apart in the source; their conditions may differ. Where a name gives a salt, the structure may show the parent alone.
What was measured:
[1] = tested on: human primary CD8+ T cells; assay: T cell expansion fold of final cell product, 15-day T cell engineering process; assay type: cell-based; conditions: for cell expansion of final T cell product: day 15, average
Description: (§1) Peripheral blood mononuclear cells (PBMCs) were isolated from human cryopreserved leukopak using Ficoll gradient centrifugation ([…], 25 min). All samples were obtained from healthy donors genotyped with HLA A*02:01 MHC class I complex. Then CD8+ T cells were isolated using the Miltenyi AutoMACS cell separator according to the manufacturer's protocol. Isolated CD8+ T cells were then mixed with Miltenyi T cell TransACT reagent (1:100) (Catalog #130-111-160), 25 ng/mL IL-7 (Catalog #130-095-367), and 50 ng/mL IL-15 (Catalog #130-095-760) in Fuji Prime-XV medium (IrvineScientific Catalog #91154) for 48 h for activation.
(§2) Cells were electroporated with the 4D-Nucleofector System (Lonza) according to the manufacturer's protocol. After activation and inhibitor treatment, 10×10^6 (or 10 million) CD8+ T cells were washed and resuspended with Lonza P3 primary cell nucleofector solution (Catalog #V4XP-3024) and then mixed with pre-mixed RNP and DNA plasmid before transferring to Lonza 100-uL cuvette. After electroporation, 400 ul of FUJI Prime-XV medium was added to the cuvette and incubated for 15 min before seeding cells in culture flask. Pulse code used in this manuscript is EH115 for all circumstances.
(§3) All inhibitors were purchased from invivogen. Unless stated otherwise, cells were cultured with Fuji Prime-XV medium with 25 ng/ml IL-7 and 50 ng/ml IL-15 (Complete medium). After electroporation, T cells were carefully transferred to 24-well gREX (Wilsonwolf, Catalog: 80192M) at 1-2 million cells/cm^2 seeding density. 8 ml of complete medium were added per well and 50% of the medium was exchanged 6 days later. Cells were incubated at 37° C. and 5% CO2. The NucleoCounter NC-200 automated cell counter with the Via2-Casette were used in this study for cell counting and viability analysis.
(§4) Two days post activation, CD8+ T cells were washed and resuspended with FUJI Prime-XV complete medium containing inhibitors at the indicated concentrations for 6 h. After treatment, cells were washed and resuspended in Lonza P3 buffer prior to electroporation. Post transfection, T cells were cultured with FUJI Prime-XV complete medium without inhibitor.

[2] = tested on: human primary CD8+ T cells; assay: Total edited cell (TEC) number in final drug product; assay type: cell-based; conditions: for TEC number: seeding 2 million cells, day 15, on average (FIG. 6C)
Source text: The total edited cell number (TECs) in the final drug product is arguably the most important metric for the adoptive cell transfer (ACT) and this, among a few other conditions, is considered one of the most important criteria for cell therapy purpose since it is expected to translate to the therapeutic impact in the clinic. Using the total cell number of the final cell product on day 15 multiplied by the percentage of knock-in, we get the TECs that are representative of our T cell engineering and culture output. With a starting seeding density of 2 million cells and without inhibitor treatment, as shown for the control conditions (CTR), the TEC numbers were approximately 5.24 million on average (FIG. 6C). However, when T cells were pre-treated with the indicated inhibitors, a significant increase in the output of TECs in all donors were observed (FIGS. 4C, 4F, 4I, FIGS. 5C, 5F), which was consistent with the cell expansion data.
as §2, §3
(§5) Dextramer antibodies for knock-in analysis were purchased from Immudex (Catalog: WB3469-PE, WT1) and used following manufacturer's protocol. Surface staining, CFSE staining, 7-AAD/annexin V staining, and intracellular staining were performed as previously described. Samples were analyzed using the BD FACSLyric flow cytometer (BD Biosciences) and FlowJo v10 software. For proliferation and cell killing assay, data were corrected by a negative control or target cell-only control.
as §4

[3] = tested on: human primary CD8+ T cells; assay: T cell viability 48 h post transfection (NucleoCounter NC-200); assay type: cell-based; conditions: for culture viability improvement compared to the untreated control group (CTR): 6 h pretreatment prior to transfection, 48 h-post transfection, on average (FIG. 6A)
Description: as §1, §2, §3, §4

[4] = tested on: human primary CD8+ T cells; assay: Knock-in/knock-out efficiency by flow cytometry (MHC-peptide dextramer and TCR staining); assay type: cell-based
Description: as §2, §5, §4

[5] = tested on: type 1 interferons (IFNa, IFNB) and proinflammatory cytokine (IL-6); assay: Cytokine expression by qPCR 6 h post transfection; assay type: cell-based, human
Description: (§6) RNeasy Mini Kit (Cat. #74106) was purchased from Qiagen. TaqMan RNA-to-CT 1-Step Kit (Cat. #4392938) and Taqman primer-probe assays with reporter dye FAM and MGB quenchers were purchased from Thermo Fisher (assay information listed in Table 4). After RNA isolation, 2 ng RNA was mixed with Taqman primer-probe mix, TaqMan RNA-to-CT 1-Step master mix, and RT enzyme mix in a 10 uL qPCR system according to the manufacturer's protocol. Reaction readings were measured using QuantStudio 6 Flex machine and data was analyzed using QuantStudio Real-Time PCR software v1.2. PCR cycling conditions were 50° C. for 30 min, 95° C. for 10 min, 40× cycles of 95° C. for 15 s, 60° C. for 1 min. All data points were collected in triplicates, using RNA18S as internal control (sample ID: #Hs03928990_g1).
as §4

TBK1 [6] = conditions: previous report [9]; cited from earlier work
TBK1 [7] = assay: Western blot analysis of TBK1 phosphorylation post transfection; assay type: cell-based, human; conditions: post BX795 pre-treatment (FIG. 8A)
Description: (§7) T cell pellets were collected, washed and stored as frozen pellets in −80° C. until use. Cell pellet processing, western blot experiments and data analysis were performed as previously described (Tang, J B C, 2020).
as §4

cGAS-STING pathway = cGAS-STING pathway activation in T cells (western blot and qPCR); assay type: cell-based, human; conditions: pretreatment prior to transfection (FIG. 8A); hydrochloride
Description: as §7, §6, §4

[8] = tested on: human primary CD8+ T cells; assay: T cell activation and cytokine expression after 24 h WT1 peptide pulse (flow cytometry); assay type: cell-based; conditions: day 15 cells pulsed 24 h with WT1 peptide
Description: The cGAS-STING pathway is crucial in detecting and neutralizing genotoxic stress. It is a main component of innate immune system that can trigger inflammation in response to cytosolic DNA detection. […] Harvested T cells from inhibitor treated and control groups were pulsed for 24 h with indicated concentrations of a specific peptide (WT1), which binds to the engineered TCR. […] Another major concern is the exhaustion of the engineered T cell cultures. To measure levels of T cell exhaustion, the expression of exhaustion markers, such as Tim3 and PD-1, was evaluated.
as §5

[9] = tested on: human primary CD8+ T cells; assay: CFSE proliferation analysis, 72 h co-culture with WT1 peptide; assay type: cell-based; conditions: day 15 cells, WT1 peptide 72 h
Description: We next investigated proliferation of T cell after treatment with BX795. The final T cell product obtained from BX795 pre-treated or untreated groups were labeled with CFSE far-red, and co-cultured with WT1 peptide at the indicated concentrations for 72 h. […] T cells treated with higher concentration of WT1 peptide achieved high (˜60%) proliferation rates, implying the strong and antigen specific proliferation of the final T cell product. Finally, we compared T cells isolated from BX795 pre-treated as well as untreated control cultures in a target cell killing assay. Target cells T2 (T) were labeled with CFSE-far red, and then pulsed with 20 uM WT1 peptide before co-incubation with our final T cell product (E) at a ratio dependent manner. […] Of note, compared with the CTLs raised from conventional vaccine strategies, our T cells achieved high killing efficiency with much lower E:T ratio [19, 20], outlining the potential advantage of antigen-specific tumor cell killing of our TCR engineered T cells.
as §5, with “For proliferation and cell killing assay, data were corrected by a negative control or target cell-only control.” left out

IRF3 = assay: Western blot analysis of IRF3 phosphorylation post transfection; assay type: cell-based, human; conditions: pre-treatment at both medium and high concentrations (FIG. 8A)
Description: as §7, §4

[10] = tested on: human primary CD8+ T cells; assay: T cell phenotype of final T cell product by flow cytometry (TSCM, TCM, TEM, TE); assay type: cell-based; conditions: pre-treatment prior to transfection; day 15; different donors; hydrochloride
Description: as §5, §4

[11] = BX795-M (mid dosage 2.5 uM), day 15

Q: Which results are given for `CC(C)c1ccc2oc3nc(N)c(C(=O)O)cc3c(=O)c2c1` [Aml, 2-amino-5-oxo-7-propan-2-ylchromeno[2,3-b]pyridine-3-carboxylic acid]?
A: cell expansion of final T cell product ([1]; 25 uM pre-treatment): 14.5 fold; average increase in TECs compared to the control group ([2]; 25 uM pre-treatment): 267.0%; TEC number ([2]; 25 uM pre-treatment): 14.7 million; culture viability improvement compared to the untreated control group (CTR) ([3]; 25 uM): about 2 fold

Q: Which “exogenous TCR expression (knock-in) over the culture process vs control group” value ([4]; 2.5 uM pre-treated, day 4 to day 15 (FIG. 14B, 14C), hydrochloride) does the source give for `O=C(NCCCNc1nc(Nc2cccc(NC(=O)N3CCCC3)c2)ncc1I)c1cccs1` [BX795, N-[3-[[5-iodo-4-[[3-[(2-thienylcarbonyl)amino]propyl]amino]-2-pyrimidinyl]amino]phenyl]-1- Pyrrolidinecarboxamide hydrochloride] here?
A: increases exogenous TCR expression; also recorded: enhances cell editing efficiency (knock-in)

Q: What about the “knock-out efficiency in final cell product” value ([4]; BX795-H (high dosage 5 uM), day 15) of the same compound?
A: 83.5%

Q: And the “knock-in ratio in final cell product” value [4, 11]?
A: 61%

Q: What about the “knock-out efficiency in final cell product” value [4, 11] of the same compound?
A: 86.7%

Q: What about the KI/KO ratio ([4]; day 15, same donor as FIG. 8A) of the same compound?
A: equal or better KI/KO ratio

Q: And the “levels of type 1 interferons (IFNa, IFNB)” value ([5]; BX795 removed prior to transfection)?
A: did not show a significant decrease

Q: And the “downstream cytokine expression (IFNa, IFNB, IL-6)” value ([5]; pre-treatment, 6 h post transfection (FIG. 8F))?
A: reduced

Q: And the “enhancement in TBK1 phosphorylation” value (TBK1 [6])?
A: 2 fold

Q: What about the TBK1 phosphorylation (TBK1 [7]) of the same compound?
A: not attenuated and was actually enhanced

Q: What about the “cell expansion of final T cell product” value ([1]; 5 uM pre-treatment) of the same compound?
A: 20.3 fold

Q: What about the “T cell expansion rate” value ([1]; day 15, same donor as FIG. 8A (FIG. 8C)) of the same compound?
A: increased T cell expansion rate

Q: And the “inhibitor performance by electroporation pulse code” value ([1]; pulse code EH115 vs other pulse codes)?
A: performs better in EH115 groups

Q: And the cGAS/STING pathway activation (cGAS-STING pathway)?
A: considerable reduction in cGAS/STING pathway activation; also recorded: attenuates T cell cGAS-STING pathway

Q: What about the “activation profile (CD137, IFNg, TNFa, Granzyme B expression) vs untreated control” value [8] of the same compound?
A: comparable activation profile

Q: And the “average increase in TECs compared to the control group” value ([2]; 2.5 uM pre-treatment)?
A: 303.4%

Q: And the TEC number ([2]; 2.5 uM pre-treatment)?
A: 21.1 million

Q: And the TEC numbers ([2]; day 15, same donor as FIG. 8A)?
A: improved TEC numbers

Q: And the “improvement in TEC compared to the control group” value ([2]; mid or high concentrations (2.5 uM and 5 um), statistically significant)?
A: more than 3 fold

Q: What about the “culture viability improvement compared to the untreated control group (CTR)” value ([3]; 5 uM) of the same compound?
A: about 2 fold

Q: And the “% viability” value ([3]; 48 h post transfection, same donor as FIG. 8A (FIG. 8B))?
A: higher % viability

Q: And the “effectiveness in improving culture viability and growth among tested inhibitors” value ([3]; at 2.5 uM and 5 uM)?
A: most effective

Q: And the “T cell proliferation in response to antigen specific stimulation vs untreated” value [9]?
A: comparable

Q: And the “phosphorylation of IRF3 post transfection” value (IRF3)?
A: attenuated phosphorylation of IRF3

Q: What about the “T cell phenotype of final T cell product vs untreated control” value [10] of the same compound?
A: no impact on the final T cell product phenotype

Q: For `O=C(NCCCNc1nc(Nc2cccc(CN3CCOCC3)c2)ncc1C1CC1)C1CCC1` [MRT, N-[3-[[5-cyclopropyl-2-[3-(morpholin-4-ylmethyl)anilino]pyrimidin-4-yl]amino]propyl] cyclobutanecarboxamide], which “cell expansion of final T cell product” value ([1]; 5 uM pre-treatment) is on record?
A: 17.2 fold

Q: What about the “average increase in TECs compared to the control group” value ([2]; 5 uM pre-treatment) of the same compound?
A: 180%

Q: What about the TEC number ([2]; 5 uM pre-treatment) of the same compound?
A: 17.4 million

Q: What about the “culture viability improvement compared to the untreated control group (CTR)” value ([3]; 2.5 uM) of the same compound?
A: about 2 fold

Source: patent publication US20250313862A1, “INHIBITION OF GENOTOXIC STRESS TO IMPROVE T CELL ENGINEERING” (GENENTECH, INC., priority 2022, published 2025)
